Like-named read-outs stand apart in the source and are kept apart here.
Assays:
hCA II = molecular target: T1, hCA II (Homo sapiens, UniProt P00918); experiment: stopped-flow CO2 hydrase assay, hCA II; type: biochemical
T1 construct: made in house
Outline: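 Inhibition of CA-catalysed CO2 hydration was measured with a stopped-flow method. Recombinant human isoforms were used at 5–12 nM enzyme.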

c-Myc = experiment: CD melting experiments, c-Myc GQ; type: binding; conditions: for ΔΔT1/2 c-Myc: ΔT1/2 of compound minus ΔT1/2 of berberine, 1 molar equiv; for ΔT1/2 c-Myc: 1 molar equiv compound, T1/2 of DNA alone 70.0 °C
HeLa cells = experiment: MTT assay, HeLa cells in normoxia; type: cell-based; conditions: for IC50: Homo sapiens
Text: Combining the results on carbonic anhydrase inhibition and GQ thermal stabilisation, we selected the sulphonamides S-2,0, S-4,0, S-5,0 and the coumarins C-3,2, C-4,2, C-5,2 as the most promising MTDLs to be further investigated, since able to both efficiently suppress the activity of the hCAs IX/XII and stabilise GQ structures, in vitro. Moreover, given that crystals suitable for X-ray diffraction analyses had been successfully obtained for the human telomeric DNA GQ in complex with S-3,2, we also included such sulphonamide derivative in the subsequent studies. Thus, we assessed the cytotoxicity of the selected MTDLs on CA IX-positive HeLa cells, using the MTT assay.
HeLa cells were grown in Dulbecco’s Modified Eagle’s Medium supplemented with 10% FBS, 100 U/mL penicillin, and 100 μg/mL streptomycin, at 37 °C, in a 5% CO2/95% air atmosphere. Cells were sub-cultured at 90% confluence, in the split ratio 1:8, every 3–5 days. The MTDLs used in this study, as well as the CAIs S and C, were dissolved in DMSO at 40 mM (for the sulphonamides) or 10 mM (for the coumarins) concentration. As for berberine, a 50 mM stock solution in DMSO was prepared. Each tested compound was diluted in cell culture medium to the required concentration, immediately prior to use. As regards the experiments under hypoxic conditions, an 80 mM stock solution of CoCl2 was prepared in sterile distilled water and further diluted in medium to obtain the final desired concentrations.
For the MTT experiments in the presence of normal oxygen levels, HeLa cells were seeded in 96-well plates at a density of 15,000 cells per well (culture medium volume – 100 μL/well) and incubated at 37 °C, for 24 h. The medium was then removed, and HeLa were incubated, for 48 h, with fresh medium containing increasing concentrations of MTDLs, single-target-directed agents (berberine, S, and C) or vehicle (0.5% DMSO). The MTDL C-4,2 was also tested for 12 h. As for the co-treatments, cells were co-treated for 12 h with equimolar concentrations of berberine and C. As regards the MTT experiments under hypoxic conditions, HeLa cells were seeded in 96-well plates (8,000 cells per well) and incubated overnight, pre-treated with 50 μM cobalt (II) chloride hexahydrate (CoCl2) and then, for the following 12 h, either exposed to increasing concentrations of C-4,2 or vehicle (0.5% DMSO), or co-treated with equimolar concentrations of berberine and C. Each condition was assayed in triplicate. At the end of the treatments, 10 µL of MTT reagent were added to each well, at a final concentration of 0.5 mg/mL, and the plates were incubated at 37 °C for 4 h. To dissolve the resulting purple formazan crystals, 100 μL of the solubilisation solution were added into each well and the plates were allowed to stand overnight in the incubator (37 °C, 5% CO2/95% air). Finally, the optical density of the samples (at 570 nm) was measured on an ELx800 Absorbance Microplate Reader (BioTek Instruments, Inc., Winooski, VT, USA). The percentage (%) of cell survival for each condition was calculated by using the following equation: % cell survival=OD− OD0/ODCONTROL− OD0×100 where OD is the optical density of the sample, OD0 is the optical density of the background signal, and ODCONTROL is the optical density of the control sample (cells treated with vehicle, 0.5% DMSO). The concentration able to reduce by 50% the cellular viability (IC50) was calculated, for each investigated compound, using Prism 8.0.2 (GraphPad, San Diego, CA, USA) and plotting the percentage of cell survival versus the compound concentration (µM).

[1] = sulphonamides, inhibitor-enzyme incubation 15 min, mean ± SEM of three assays
[2] = 48 h, normoxia, read-out: IC50 (50% of cell viability reduction), MTT assay
[3] = coumarins, inhibitor-enzyme incubation 6 h

| Structure (SMILES) | Ki (hCA II; [1]) [µM] | ΔΔT1/2 c-Myc (c-Myc) [°C] | ΔΔT1/2 c-Myc (c-Myc; listed as S-2,0) [°C] | IC50 (50% of cell viability reduction), MTT assay (HeLa cells; 48 h, normoxia) | IC50 (HeLa cells; [2]) [µM] | ΔT1/2 c-Myc (c-Myc) [°C] | ΔΔT1/2 c-Myc (c-Myc; listed as S-4,0) [°C] | reduction in the percentage of cell survival (HeLa cells; 48 h, concentration up to 200 µM) | Ki (hCA II; [3]) [µM] | cytotoxicity compared with co-exposure to equimolar berberine and C (HeLa cells; 12 h, normoxia) | IC50 (HeLa cells; 12 h treatment, normoxia, read-out: IC50, MTT assay) [µM] | ΔΔT1/2 c-Myc (c-Myc; listed as C-5,2) [°C] |
| --- | --- | --- | --- | --- | --- | --- | --- | --- | --- | --- | --- | --- |
| COc1ccc2cc3[n+](cc2c1OCCn1cc(-c2ccc(S(N)(=O)=O)cc2)nn1)CCc1cc2c(cc1-3)OCO2 [Compound 26, 10-Methoxy-9–(2-(4–(4-sulfamoylphenyl)-1H-1,2,3-triazol-1-yl)ethoxy)-5,6-dihydro-[1,3]dioxolo[4,5-g]isoquinolino[3,2-a]isoquinolin-7-ium hexafluorophosphate] | 0.0594 ± 0.0038 | >13.0 | > 13.0 | fell outside the explored range of concentrations | > 200 | – | – | – | – | – | – | – |
| COc1ccc2cc3[n+](cc2c1OCCCn1cc(COc2ccc(S(N)(=O)=O)cc2)nn1)CCc1cc2c(cc1-3)OCO2 [Compound 29, 10-Methoxy-9–(3-(4-((4-sulfamoylphenoxy)methyl)-1H-1,2,3-triazol-1-yl)propoxy)-5,6-dihydro-[1,3]dioxolo[4,5-g]isoquinolino[3,2-a]isoquinolin-7-ium hexafluorophosphate] | 0.0623 ± 0.0047 | 4.5 | – | fell outside the explored range of concentrations | > 200 | 16.5 | – | – | – | – | – | – |
| COc1ccc2cc3[n+](cc2c1OCCCCn1cc(-c2ccc(S(N)(=O)=O)cc2)nn1)CCc1cc2c(cc1-3)OCO2 [Compound 30, 10-Methoxy-9–(4–(4-(4-sulfamoylphenyl)-1H-1,2,3-triazol-1-yl)butoxy)-5,6-dihydro-[1,3]dioxolo[4,5-g]isoquinolino[3,2-a]isoquinolin-7-ium hexafluorophosphate] | 0.0551 ± 0.0038 | >13.0 | – | – | 35 | – | > 13.0 | – | – | – | – | – |
| COc1ccc2cc3[n+](cc2c1OCCCCCn1cc(-c2ccc(S(N)(=O)=O)cc2)nn1)CCc1cc2c(cc1-3)OCO2 [Compound 32, 10-Methoxy-9-((5–(4-(4-sulfamoylphenyl)-1H-1,2,3-triazol-1-yl)pentyl)oxy)-5,6-dihydro-[1,3]dioxolo[4,5-g]isoquinolino[3,2-a]isoquinolin-7-ium hexafluorophosphate] | 0.0158 ± 0.0012 | 1.0 | – | fell outside the explored range of concentrations | > 200 | 13.0 | – | around 40% | – | – | – | – |
| COc1ccc2cc3[n+](cc2c1OCCCn1cc(COc2ccc4ccc(=O)oc4c2)nn1)CCc1cc2c(cc1-3)OCO2 [Compound 34, 10-Methoxy-9–(3-(4-(((2-oxo-2H-chromen-7-yl)oxy)methyl)-1H-1,2,3-triazol-1-yl)propoxy)-5,6-dihydro-[1,3]dioxolo[4,5-g]isoquinolino[3,2-a]isoquinolin-7-ium hexafluorophosphate] | – | 6.0 | – | fell outside the explored range of concentrations | > 50 | 18.0 | – | – | > 100 | – | – | – |
| COc1ccc2cc3[n+](cc2c1OCCCCn1cc(COc2ccc4ccc(=O)oc4c2)nn1)CCc1cc2c(cc1-3)OCO2 [Compound 37, 10-Methoxy-9–(4-(4-(((2-oxo-2H-chromen-7-yl)oxy)methyl)-1H-1,2,3-triazol-1-yl)butoxy)-5,6-dihydro-[1,3]dioxolo[4,5-g]isoquinolino[3,2-a]isoquinolin-7-ium hexafluorophosphate] | – | 1.0 | – | – | 40 | 13.0 | – | – | > 100 | greater | 46 | – |
| COc1ccc2cc3[n+](cc2c1OCCCCCn1cc(COc2ccc4ccc(=O)oc4c2)nn1)CCc1cc2c(cc1-3)OCO2 [Compound 39, 10-Methoxy-9-((5–(4-(((2-oxo-2H-chromen-7-yl)oxy)methyl)-1H-1,2,3-triazol-1-yl)pentyl)oxy)-5,6-dihydro-[1,3]dioxolo[4,5-g]isoquinolino[3,2-a]isoquinolin-7-ium hexafluorophosphate] | – | >13.0 | – | – | 37.5 | – | – | – | > 100 | – | – | > 13.0 |

— paper PMC11195807, “Development of a multi-targeted chemotherapeutic approach based on G-quadruplex stabilisation and carbonic anhydrase inhibition” (Journal of Enzyme Inhibition and Medicinal Chemistry, 2024)
